The assay addresses T1, Pex1/Pex6_WB (Pex1-Strep2/His-Pex6(E832Q)) heterohexamer (Saccharomyces cerevisiae, UniProt P24004+P33760, P33760:E832Q).
T1 construct: full-length Pex1 with C-terminal Strep2 tag and Pex6(E832Q, D2 Walker B) with N-terminal His tag, co-expressed in S. cerevisiae MH 272/3f alpha; heterohexamer of alternating Pex1 and Pex6 (trimer of dimers); endogenous peptide trapped in D2 pore
T1 sequence (P24004 1-1043): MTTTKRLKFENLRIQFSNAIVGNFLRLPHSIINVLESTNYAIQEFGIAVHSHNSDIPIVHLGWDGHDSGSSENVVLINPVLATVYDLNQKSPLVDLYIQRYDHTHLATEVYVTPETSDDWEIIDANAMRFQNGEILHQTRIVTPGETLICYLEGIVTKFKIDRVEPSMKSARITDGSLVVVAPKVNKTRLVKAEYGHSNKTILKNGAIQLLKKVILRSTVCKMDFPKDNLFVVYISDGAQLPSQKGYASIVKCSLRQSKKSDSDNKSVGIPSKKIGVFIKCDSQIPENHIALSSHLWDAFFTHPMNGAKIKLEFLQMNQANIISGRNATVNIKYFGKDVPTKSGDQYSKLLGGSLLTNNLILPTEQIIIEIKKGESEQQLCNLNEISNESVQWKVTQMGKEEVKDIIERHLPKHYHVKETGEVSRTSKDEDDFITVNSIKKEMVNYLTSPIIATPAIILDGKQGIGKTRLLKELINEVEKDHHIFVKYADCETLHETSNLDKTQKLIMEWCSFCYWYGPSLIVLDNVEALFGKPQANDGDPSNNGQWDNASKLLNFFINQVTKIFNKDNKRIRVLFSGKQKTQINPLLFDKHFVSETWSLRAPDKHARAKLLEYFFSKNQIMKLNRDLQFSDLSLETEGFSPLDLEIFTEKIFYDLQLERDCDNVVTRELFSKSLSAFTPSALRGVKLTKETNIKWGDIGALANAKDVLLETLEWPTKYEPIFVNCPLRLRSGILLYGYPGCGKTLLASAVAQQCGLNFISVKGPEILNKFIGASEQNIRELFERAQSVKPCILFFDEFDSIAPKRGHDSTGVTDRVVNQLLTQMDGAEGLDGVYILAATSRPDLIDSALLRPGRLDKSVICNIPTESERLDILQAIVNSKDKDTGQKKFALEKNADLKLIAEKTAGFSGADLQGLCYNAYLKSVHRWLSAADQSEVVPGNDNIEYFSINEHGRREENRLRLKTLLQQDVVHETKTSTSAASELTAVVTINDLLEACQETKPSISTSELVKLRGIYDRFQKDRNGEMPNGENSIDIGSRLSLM
T1 sequence (P33760 1-1030 E832Q): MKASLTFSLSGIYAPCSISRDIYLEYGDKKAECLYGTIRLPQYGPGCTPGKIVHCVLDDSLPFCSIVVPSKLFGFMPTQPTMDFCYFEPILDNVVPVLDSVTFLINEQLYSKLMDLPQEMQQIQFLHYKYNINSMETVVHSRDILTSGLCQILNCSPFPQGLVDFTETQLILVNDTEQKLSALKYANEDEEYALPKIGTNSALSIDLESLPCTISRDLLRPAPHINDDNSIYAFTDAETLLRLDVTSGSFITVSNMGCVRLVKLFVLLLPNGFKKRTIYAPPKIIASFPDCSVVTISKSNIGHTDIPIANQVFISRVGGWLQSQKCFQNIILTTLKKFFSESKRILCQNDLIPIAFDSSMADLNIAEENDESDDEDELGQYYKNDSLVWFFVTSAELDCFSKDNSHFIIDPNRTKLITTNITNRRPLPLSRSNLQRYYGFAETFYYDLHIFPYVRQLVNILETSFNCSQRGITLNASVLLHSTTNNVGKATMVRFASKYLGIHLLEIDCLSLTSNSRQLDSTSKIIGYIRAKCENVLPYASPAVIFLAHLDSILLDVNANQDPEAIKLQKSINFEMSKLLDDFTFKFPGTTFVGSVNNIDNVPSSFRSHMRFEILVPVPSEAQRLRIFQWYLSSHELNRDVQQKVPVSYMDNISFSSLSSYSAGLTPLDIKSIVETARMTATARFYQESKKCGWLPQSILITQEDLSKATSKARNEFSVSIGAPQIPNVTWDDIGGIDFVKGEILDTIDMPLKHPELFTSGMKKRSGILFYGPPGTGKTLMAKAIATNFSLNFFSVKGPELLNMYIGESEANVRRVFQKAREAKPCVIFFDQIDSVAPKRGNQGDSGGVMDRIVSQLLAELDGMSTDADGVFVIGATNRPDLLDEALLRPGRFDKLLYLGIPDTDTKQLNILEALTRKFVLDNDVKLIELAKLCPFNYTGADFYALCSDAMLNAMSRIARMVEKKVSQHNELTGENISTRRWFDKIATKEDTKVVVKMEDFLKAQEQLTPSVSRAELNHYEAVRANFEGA
Nature of the assay: cryo-EM structure. It counts as binding.

Consider `Nc1ncnc2c1ncn2[C@@H]1O[C@H](COP(=O)(O)OP(=O)(O)O)[C@@H](O)[C@H]1O` [ADP], for which the cryo-EM structure result (D2 sites of bottom and seam subunits, nucleotide assigned from density and pocket opening, not with absolute confidence, no ADP added (ATP in purification)) was “D2 domains are indeed in an ADP-bound state”. Take `Nc1ncnc2c1ncn2[C@@H]1O[C@H](COP(=O)(O)OP(=O)(O)OP(=O)(O)O)[C@@H](O)[C@H]1O` [ATP]: the cryo-EM structure entry (Mg2+, 1-3 mM ATP in purification, bound at all six D1 sites (not hydrolysed) and at D2 sites of the substrate-engaged subunits, single-seam 8C0V and twin-seam 8C0W) is on record as “all ATPase domains of the D1 ring are bound to ATP”.

The record behind these values is article PMC10518020, “Structure of the peroxisomal Pex1/Pex6 ATPase complex bound to a substrate” (Nature Communications, 2023).
